# Square brackets hold non-standard residues; d marks the D form. Peptide text beside a SMILES is read from it. * marks the point of attachment. Ala(1H-tetrazol-5-yl) = N[C@@H](Cc1nnn[nH]1)C(=O)O; Ms = CS(=O)(=O)*
# Key:
# [1] = Peptide stability test 1: aqueous solution, phosphate buffer pH 7.0, stored at 40° C., HPLC conditions 1; assay type: physicochemical; settings: phosphate buffer pH 7.0, 40° C.; for survival rate after correction for water, 40° C., 1-month storage / survival rate after correction for water, 40° C., 2-month storage: 100 μM peptide; for survival rate after correction for water, 40° C., 2-month storage: 2 months
# Method: Peptides 1 and 3 to 5 synthesized in Example 2 were weighed and dissolved in phosphate buffer (pH 7.0) to prepare 1.0 mM peptide solutions. The 1.0 mM peptide solutions were then diluted with phosphate buffer to 100 μM. After filtering with. Chromatdisk (product of Merck Millipore, Millex-GV, 0.22 μm), each filtrate was dispensed into an LC vial (Waters Deactivated Qsert Vial). The prepared peptide solutions were incubated for one month or 2 months in a 40° C. thermostatic bath to obtain stored samples. A simultaneously prepared sample among the peptide solutions that was not stored was used as a standard sample (initial sample). The standard sample and the stored samples were stored at −30° C. until sample analysis.
# Using the total weight of the aqueous peptide solution and storage vessel as the specimen weight, measurements were recorded as the specimen weights before storage and the specimen weights after storage under different storage conditions. The empty weight of the storage vessel was also measured, and the moisture permeability was determined by the following formula.
# After stirring the standard sample and the stored samples on a vortex mixer, each peptide solution was transferred to an HPLC vial (Deactivated Qsert vial by Waters Co.). Reverse-phase HPLC (HPLC system: Prominence by Shimadzu Corp.) was conducted under the conditions shown in Table 3 below for analysis of the_peptide solutions, and chromatograms were obtained.
# Column: XSelect CSH C18 by Waters Co., 5 μm, 4.6×250 mm
# Guard column: XSelect CSH C18 by Waters. Co., 5 μm, 4.6×20 mm Guard Cartridge
# Detection wavelength: 220 nm
# Mobile phase A: 0.1% formic acid in water
# Mobile phase B: 0.1% formic acid in acetonitrile
# Measuring time: 30 minutes
# Measuring sample injection rate: 50 μL
# Column temperature: 40° C.
# Mobile phase delivery: The mixing ratio of mobile phase A and mobile phase B was varied as shown in Table 3 for linear concentration gradient control.
# The peak area value for the peptide in the chromatogram was calculated, and the survival rate (survival rate before correction for water) was calculated using formula (2). The survival rate after correction for water was also calculated from the survival rate before correction for water using formula (3), taking into account the moisture permeability of the container.
# [2] = Peptide stability tests 2 and 3: Tris buffer pH 7.0, stored at 60° C., HPLC conditions 2; assay type: physicochemical; settings: 100 μM peptide, Tris buffer pH 7.0, 60° C., 2 weeks
# Method in brief: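 Peptides at 100 μM in Tris buffer pH 7.0, held 1 or 2 weeks at 60° C. An unstored sample served as standard. Water-corrected survival rate by HPLC on C18 at 40° C., 0.1% formic acid water/acetonitrile gradient, 220 nm detection.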
Compound,"survival rate after correction for water, 40° C., 1-month storage [1]","survival rate after correction for water, 40° C., 2-month storage [1]","stability in aqueous solution, in words [1]","survival rate after correction for water, 60° C., 2-week storage (Table 7-2) [2]"
CC[C@H](C)[C@H](NC(=O)CNC(=O)[C@H](Cc1nnn[nH]1)NC(=O)[C@H](CO)NC(=O)[C@@H](N)Cc1c[nH]cn1)C(=O)N[C@@H](Cc1ccccc1)C(=O)N[C@H](C(=O)N[C@@H](CC(=O)O)C(=O)N[C@@H](CO)C(=O)N[C@@H](Cc1ccc(O)cc1)C(=O)N[C@@H](CO)C(=O)N[C@@H](CCCNC(=N)N)C(=O)N[C@@H](Cc1ccc(O)cc1)C(=O)N[C@@H](CCCNC(=N)N)C(=O)N[C@@H](CCCCN)C(=O)N[C@@H](CCC(N)=O)C(=O)N[C@@H](CCSC)C(=O)N[C@@H](C)C(=O)N[C@H](C(=O)N[C@@H](CCCCN)C(=O)N[C@@H](CCCCN)C(=O)N[C@@H](Cc1ccc(O)cc1)C(=O)N[C@@H](CC(C)C)C(=O)N[C@@H](C)C(=O)N[C@@H](C)C(=O)N[C@H](C(=O)N[C@@H](CC(C)C)C(N)=O)C(C)C)C(C)C)[C@@H](C)O [Peptide 3],76.5%,60.7%,higher stability than peptide 1,
CC[C@H](C)[C@H](NC(=O)CNC(=O)[C@H](CC(=O)O)NC(=O)[C@H](CO)NC(=O)[C@@H](N)Cc1c[nH]cn1)C(=O)N[C@@H](Cc1ccccc1)C(=O)N[C@H](C(=O)N[C@@H](Cc1nnn[nH]1)C(=O)N[C@@H](CO)C(=O)N[C@@H](Cc1ccc(O)cc1)C(=O)N[C@@H](CO)C(=O)N[C@@H](CCCNC(=N)N)C(=O)N[C@@H](Cc1ccc(O)cc1)C(=O)N[C@@H](CCCNC(=N)N)C(=O)N[C@@H](CCCCN)C(=O)N[C@@H](CCC(N)=O)C(=O)N[C@@H](CCSC)C(=O)N[C@@H](C)C(=O)N[C@H](C(=O)N[C@@H](CCCCN)C(=O)N[C@@H](CCCCN)C(=O)N[C@@H](Cc1ccc(O)cc1)C(=O)N[C@@H](CC(C)C)C(=O)N[C@@H](C)C(=O)N[C@@H](C)C(=O)N[C@H](C(=O)N[C@@H](CC(C)C)C(N)=O)C(C)C)C(C)C)[C@@H](C)O [Peptide 4] (H-HSDGIFT[Ala(1H-tetrazol-5-yl)]SYSRYRKQMAVKKYLAAVL-NH2),42.8%,28.2%,increased stability compared to peptide 1,
CC[C@H](C)[C@H](NC(=O)CNC(=O)[C@H](Cc1nnn[nH]1)NC(=O)[C@H](CO)NC(=O)[C@H](Cc1c[nH]cn1)NS(C)(=O)=O)C(=O)N[C@@H](Cc1ccccc1)C(=O)N[C@H](C(=O)N[C@@H](Cc1nnn[nH]1)C(=O)N[C@@H](C)C(=O)N[C@@H](Cc1ccc(O)cc1)C(=O)N[C@@H](CO)C(=O)N[C@@H](CCCNC(=N)N)C(=O)N[C@@H](Cc1ccc(O)cc1)C(=O)N[C@@H](CCCNC(=N)N)C(=O)N[C@@H](CCCCN)C(=O)N[C@@H](CCC(N)=O)C(=O)N[C@@H](CC(C)C)C(=O)N[C@@H](C)C(=O)N[C@H](C(=O)N[C@@H](CCCCN)C(=O)N[C@@H](CCCCN)C(=O)N[C@@H](Cc1ccc(O)cc1)C(=O)N[C@@H](CC(C)C)C(=O)N[C@@H](C)C(=O)N[C@@H](C)C(=O)N[C@H](C(=O)N[C@@H](CC(C)C)C(N)=O)C(C)C)C(C)C)[C@@H](C)O [Peptide 29] (Ms-HS[Ala(1H-tetrazol-5-yl)]GIFT[Ala(1H-tetrazol-5-yl)]AYSRYRKQLAVKKYLAAVL-NH2),,,,91.9%
CC[C@H](C)[C@H](NC(=O)[C@H](C)NC(=O)[C@H](Cc1nnn[nH]1)NC(=O)[C@H](CO)NC(=O)[C@H](Cc1c[nH]cn1)NS(C)(=O)=O)C(=O)N[C@@H](Cc1ccccc1)C(=O)N[C@H](C(=O)N[C@@H](Cc1nnn[nH]1)C(=O)N[C@@H](CO)C(=O)N[C@@H](Cc1ccc(O)cc1)C(=O)N[C@@H](CO)C(=O)N[C@@H](CCCNC(=N)N)C(=O)N[C@@H](Cc1ccc(O)cc1)C(=O)N[C@@H](CCCNC(=N)N)C(=O)N[C@@H](CCCCN)C(=O)N[C@@H](CCC(N)=O)C(=O)N[C@@H](CC(C)C)C(=O)N[C@@H](C)C(=O)N[C@H](C(=O)N[C@@H](CCCCN)C(=O)N[C@@H](CCCCN)C(=O)N[C@@H](Cc1ccc(O)cc1)C(=O)N[C@@H](CC(C)C)C(=O)N[C@@H](C)C(=O)N[C@@H](C)C(=O)N[C@H](C(=O)N[C@@H](CC(C)C)C(N)=O)C(C)C)C(C)C)[C@@H](C)O [Peptide 30] (Ms-HS[Ala(1H-tetrazol-5-yl)]AIFT[Ala(1H-tetrazol-5-yl)]SYSRYRKQLAVKKYLAAVL-NH2),,,,92.2%
CC[C@H](C)[C@H](NC(=O)[C@H](C)NC(=O)[C@H](Cc1nnn[nH]1)NC(=O)[C@H](CO)NC(=O)[C@H](Cc1c[nH]cn1)NS(C)(=O)=O)C(=O)N[C@@H](Cc1ccccc1)C(=O)N[C@H](C(=O)N[C@@H](Cc1nnn[nH]1)C(=O)N[C@@H](CO)C(=O)N[C@@H](Cc1ccc(O)cc1)C(=O)N[C@@H](CO)C(=O)N[C@@H](CCCNC(=N)N)C(=O)N[C@@H](Cc1ccc(O)cc1)C(=O)N[C@@H](CCCNC(=N)N)C(=O)N[C@@H](CCCCN)C(=O)N[C@@H](CCC(N)=O)C(=O)N[C@@H](C)C(=O)N[C@@H](C)C(=O)N[C@H](C(=O)N[C@@H](CCCCN)C(=O)N[C@@H](CCCCN)C(=O)N[C@@H](Cc1ccc(O)cc1)C(=O)N[C@@H](CC(C)C)C(=O)N[C@@H](C)C(=O)N[C@@H](C)C(=O)N[C@H](C(=O)N[C@@H](CC(C)C)C(N)=O)C(C)C)C(C)C)[C@@H](C)O [Peptide 31] (Ms-HS[Ala(1H-tetrazol-5-yl)]AIFT[Ala(1H-tetrazol-5-yl)]SYSRYRKQAAVKKYLAAVL-NH2),,,,90.1%
CC[C@H](C)[C@H](NC(=O)[C@H](C)NC(=O)[C@H](Cc1nnn[nH]1)NC(=O)[C@H](CO)NC(=O)[C@H](Cc1c[nH]cn1)NC(C)=O)C(=O)N[C@@H](Cc1ccccc1)C(=O)N[C@H](C(=O)N[C@@H](Cc1nnn[nH]1)C(=O)N[C@@H](CO)C(=O)N[C@@H](Cc1ccc(O)cc1)C(=O)N[C@@H](CO)C(=O)N[C@@H](CCCNC(=N)N)C(=O)N[C@@H](Cc1ccc(O)cc1)C(=O)N[C@@H](CCCNC(=N)N)C(=O)N[C@@H](CCCCN)C(=O)N[C@@H](CCC(N)=O)C(=O)N[C@@H](C)C(=O)N[C@@H](C)C(=O)N[C@H](C(=O)N[C@@H](CCCCN)C(=O)N[C@@H](CCCCN)C(=O)N[C@@H](Cc1ccc(O)cc1)C(=O)N[C@@H](CC(C)C)C(=O)N[C@@H](C)C(=O)N[C@@H](C)C(=O)N[C@H](C(=O)N[C@@H](CC(C)C)C(N)=O)C(C)C)C(C)C)[C@@H](C)O [Peptide 32] (Ac-HS[Ala(1H-tetrazol-5-yl)]AIFT[Ala(1H-tetrazol-5-yl)]SYSRYRKQAAVKKYLAAVL-NH2),,,,88.7%
CC[C@H](C)[C@H](NC(=O)[C@H](C)NC(=O)[C@H](Cc1nnn[nH]1)NC(=O)[C@H](C)NC(=O)[C@H](Cc1c[nH]cn1)NC(C)=O)C(=O)N[C@@H](Cc1ccccc1)C(=O)N[C@H](C(=O)N[C@@H](Cc1nnn[nH]1)C(=O)N[C@@H](CO)C(=O)N[C@@H](Cc1ccc(O)cc1)C(=O)N[C@@H](CO)C(=O)N[C@@H](CCCNC(=N)N)C(=O)N[C@@H](Cc1ccc(O)cc1)C(=O)N[C@@H](CCCNC(=N)N)C(=O)N[C@@H](CCCCN)C(=O)N[C@@H](CCC(N)=O)C(=O)N[C@@H](C)C(=O)N[C@@H](C)C(=O)N[C@H](C(=O)N[C@@H](CCCCN)C(=O)N[C@@H](CCCCN)C(=O)N[C@@H](Cc1ccc(O)cc1)C(=O)N[C@@H](CC(C)C)C(=O)N[C@@H](C)C(=O)N[C@@H](C)C(=O)N[C@H](C(=O)N[C@@H](CC(C)C)C(N)=O)C(C)C)C(C)C)[C@@H](C)O [Peptide 33] (Ac-HA[Ala(1H-tetrazol-5-yl)]AIFT[Ala(1H-tetrazol-5-yl)]SYSRYRKQAAVKKYLAAVL-NH2),,,,85.3%
CC[C@H](C)[C@H](NC(=O)[C@H](C)NC(=O)[C@H](Cc1nnn[nH]1)NC(=O)[C@H](CO)NC(=O)[C@H](Cc1c[nH]cn1)NC(C)=O)C(=O)N[C@@H](Cc1ccccc1)C(=O)N[C@H](C(=O)N[C@@H](Cc1nnn[nH]1)C(=O)N[C@@H](CO)C(=O)N[C@@H](Cc1ccc(O)cc1)C(=O)N[C@@H](CO)C(=O)N[C@@H](CCCNC(=N)N)C(=O)N[C@@H](Cc1ccc(O)cc1)C(=O)N[C@@H](CCCNC(=N)N)C(=O)N[C@@H](CCCCN)C(=O)N[C@@H](C)C(=O)N[C@@H](C)C(=O)N[C@@H](C)C(=O)N[C@H](C(=O)N[C@@H](CCCCN)C(=O)N[C@@H](CCCCN)C(=O)N[C@@H](Cc1ccc(O)cc1)C(=O)N[C@@H](CC(C)C)C(=O)N[C@@H](C)C(=O)N[C@@H](C)C(=O)N[C@H](C(=O)N[C@@H](CC(C)C)C(N)=O)C(C)C)C(C)C)[C@@H](C)O [Peptide 34] (Ac-HS[Ala(1H-tetrazol-5-yl)]AIFT[Ala(1H-tetrazol-5-yl)]SYSRYRKAAAVKKYLAAVL-NH2),,,,96.9%
